Measured values published in patent EP4810038A1, “METHOD FOR TREATING ALK-POSITIVE OR ROS1-POSITIVE NON-SMALL CELL LUNG CANCER” (Shenzhen TargetRx Co., Ltd., priority 2023, dated 2025).

System: ALK-positive or ROS1-positive advanced non-small cell lung cancer
Assay: Phase I clinical trial, dose escalation and expansion phases: efficacy (RECIST 1.1)
Format: in vivo, human
Settings: systemic
Description: The anti-tumor efficacy is evaluated according to RECIST version 1.1. For patients initially evaluated as having a complete response (CR) or partial response (PR), efficacy should be confirmed at least 4 weeks later. In the patients with asymptomatic central nervous system (CNS) metastases, in addition to evaluating 5 extracranial target lesions, up to 5 intracranial target lesions will also be evaluated. The specific indicators are as follows:
"CR" is defined as the disappearance of all target lesions, and the diameters of the short axis of all the pathological lymph nodes (whether target or non-target lymph nodes) must be reduced to 10 mm or less.
"PR" is defined as a reduction of at least 30% in the total diameter of the target lesions, with the total diameter of the baseline as a reference value.
"PD" is defined as an increase of at least 20% in the total diameter of the target lesions, using the minimum total diameter in the study as a reference value (this value may include the total diameter of the baseline). In addition, the absolute value of the total diameter must increase by at least 5 mm (the appearance of one or more new lesions is also considered as progressive disease).
"SD" is defined as a state in which the reduction in target lesions is insufficient to achieve partial response and the increase is insufficient to achieve progressive disease.
"ORR" includes CR and PR, and is defined as the proportion of patients who achieve complete response or partial response.
"IC-ORR" includes CR or PR for confirmed intracranial lesions, and is defined as the proportion of the patients with complete response or partial response of intracranial lesions among the patients with intracranial lesions.
"DCR" is defined as the proportion of the patients who achieve response (PR+CR) and stable disease (SD) after a treatment.
"IC-DCR" is defined as the proportion of the patients who achieve intracranial response (PR+CR), intracranial stable disease (SD), and […] after a treatment among the patients with intracranial lesions.
"DOR" is defined as the time from the first assessment of CR or PR to progressive disease or death, and is only applicable to the patients who achieve response.
"IC-DOR" is defined as the time from the first assessment of intracranial CR or intracranial PR to progressive disease or death, and is only applicable to the patients whose intracranial lesions achieve response.
"TTR" is defined as the time from patient enrollment (first dose of investigational drug) to tumor response (CR/PR), based on the patients with objective response.
"IC-TTR" is defined as the time from patient enrollment (first dose of investigational drug) to intracranial tumor response (IC-CR/PR), based on the patients with intracranial objective response.
Approximately eight dose groups in total were set in the dose escalation phase, which were 5 (the starting dose), 10, 20, 40, 60, 80, 100, and 125 mg, respectively. Subjects in all the dose groups received a single dose on day 1 (D1), and the blood samples were collected for pharmacokinetic (PK) assay and tolerability observation. If no grade 2 or a higher-level adverse event related to the investigational drug occurred during the single-dose period (5 to 7 days) (if such events occurred, dose adjustments would be made based on the toxicity according to the protocol), the subject entered the multiple-dose period (i.e., treatment period) 5 to 7 days later (7 days after the first administration in the first dose group (i.e., starting the multiple-dose treatment on day 8), and the intervals for the subsequent dose groups were determined based on the obtained tolerability and PK data). […]

Question: With `[2H]C([2H])([2H])n1nc2c(c1C#N)-c1cnc(N)c(c1)O[C@H](C)c1cc(F)ccc1C(=O)N(C)C2` [compound A, (10R)-7-amino-12-fluoro-2-(methyl-d3)-10,16-dimethyl-15-oxo-10,15,16,17-tetrahydro-2H-8,4-(metheno)pyrazolo[4,3-h][2,5,11]benzoxadiazacyclotetradecine-3-carbonitrile] as the molecule, how does the “DCR (95% CI)” value (5mg (N=1)) read?
Answer: 1 (100) (2.5, 100.0) n (%)

Question: What about the “BOR CR” value (10mg (N=1)) of the same molecule?
Answer: 0 n (%)

Question: What about the “BOR NE” value (10mg (N=1)) of the same molecule?
Answer: 0 n (%)

Question: And the “BOR PD” value (10mg (N=1))?
Answer: 0 n (%)

Question: And the “BOR PR” value (10mg (N=1))?
Answer: 0 n (%)

Question: What about the “BOR SD” value (10mg (N=1)) of the same molecule?
Answer: 1 (100) n (%)

Question: And the “Confirmed ORR (95% CI)” value (10mg (N=1))?
Answer: 0 (0.0, 97.5) n (%)

Question: And the “DCR (95% CI)” value (10mg (N=1))?
Answer: 1 (100) (2.5, 100.0) n (%)

Question: What about the “BOR CR” value (20mg (N=1)) of the same molecule?
Answer: 0 n (%)

Question: And the “BOR NE” value (20mg (N=1))?
Answer: 0 n (%)

Question: What about the “BOR PD” value (20mg (N=1)) of the same molecule?
Answer: 0 n (%)

Question: What about the “BOR PR” value (20mg (N=1)) of the same molecule?
Answer: 1 (100) n (%)

Question: And the “BOR SD” value (20mg (N=1))?
Answer: 0 n (%)

Question: And the “Confirmed ORR (95% CI)” value (20mg (N=1))?
Answer: 1 (100) (2.5, 100.0) n (%)

Question: What about the “DCR (95% CI)” value (20mg (N=1)) of the same molecule?
Answer: 1 (100) (2.5, 100.0) n (%)

Question: And the “Median DOR (95% CI)” value (20mg (N=1))?
Answer: 6.93 (-, -) months

Question: What about the “Median TTR (range)” value (20mg (N=1)) of the same molecule?
Answer: 1.35 (1.35, 1.35) months

Question: And the “BOR CR” value (40mg (N=10))?
Answer: 0 n (%)

Question: And the “BOR NE” value (40mg (N=10))?
Answer: 2 (20.0) n (%)

Question: And the “BOR PD” value (40mg (N=10))?
Answer: 2 (20.0) n (%)

Question: What about the “BOR PR” value (40mg (N=10)) of the same molecule?
Answer: 1 (10.0) n (%)

Question: And the “BOR SD” value (40mg (N=10))?
Answer: 5 (50.0) n (%)

Question: And the “Confirmed ORR (95% CI)” value (40mg (N=10))?
Answer: 1 (10.0) (0.3, 44.5) n (%)

Question: And the “DCR (95% CI)” value (40mg (N=10))?
Answer: 6 (60.0) (26.2, 87.8) n (%)

Question: And the “Median TTR (range)” value (40mg (N=10))?
Answer: 2.73 (2.73, 2.73) months

Question: And the “BOR CR” value (60mg (N=12))?
Answer: 0 n (%)

Question: What about the “BOR NE” value (60mg (N=12)) of the same molecule?
Answer: 0 n (%)

Question: And the “BOR PD” value (60mg (N=12))?
Answer: 1 (8.3) n (%)

Question: What about the “BOR PR” value (60mg (N=12)) of the same molecule?
Answer: 6 (50.0) n (%)

Question: What about the “BOR SD” value (60mg (N=12)) of the same molecule?
Answer: 5 (41.7) n (%)

Question: What about the “Confirmed ORR (95% CI)” value (60mg (N=12)) of the same molecule?
Answer: 6 (50.0) (21.1, 78.9) n (%)

Question: What about the “DCR (95% CI)” value (60mg (N=12)) of the same molecule?
Answer: 11 (91.7) (61.5, 99.8) n (%)

Question: What about the “Median DOR (95% CI)” value (60mg (N=12)) of the same molecule?
Answer: 12.45 (2.79, -) months

Question: What about the “Median TTR (range)” value (60mg (N=12)) of the same molecule?
Answer: 1.35 (1.35, 6.90) months

Question: And the “BOR CR” value (80mg (N=11))?
Answer: 0 n (%)

Question: What about the “BOR NE” value (80mg (N=11)) of the same molecule?
Answer: 1 (9.1) n (%)

Question: And the “BOR PD” value (80mg (N=11))?
Answer: 1 (9.1) n (%)

Question: And the “BOR PR” value (80mg (N=11))?
Answer: 4 (36.4) n (%)

Question: What about the “BOR SD” value (80mg (N=11)) of the same molecule?
Answer: 5 (45.5) n (%)

Question: And the “Confirmed ORR (95% CI)” value (80mg (N=11))?
Answer: 4 (36.4) (10.9, 69.2) n (%)

Question: And the “DCR (95% CI)” value (80mg (N=11))?
Answer: 9 (81.8) (48.2, 97.7) n (%)

Question: And the “Median DOR (95% CI)” value (80mg (N=11))?
Answer: 12.48 (7.98, -) months

Question: And the “Median TTR (range)” value (80mg (N=11))?
Answer: 1.45 (1.35, 13.96) months

Question: And the “BOR CR” value (100mg (N=3))?
Answer: 0 n (%)

Question: What about the “BOR NE” value (100mg (N=3)) of the same molecule?
Answer: 0 n (%)

Question: What about the “BOR PD” value (100mg (N=3)) of the same molecule?
Answer: 0 n (%)

Question: What about the “BOR PR” value (100mg (N=3)) of the same molecule?
Answer: 2 (66.7) n (%)

Question: What about the “BOR SD” value (100mg (N=3)) of the same molecule?
Answer: 1 (33.3) n (%)

Question: And the “Confirmed ORR (95% CI)” value (100mg (N=3))?
Answer: 2 (66.7) (9.4, 99.2) n (%)

Question: What about the “DCR (95% CI)” value (100mg (N=3)) of the same molecule?
Answer: 3 (100) (29.2, 100.0) n (%)

Question: And the “Median DOR (95% CI)” value (100mg (N=3))?
Answer: 5.57 (4.17, -) months

Question: And the “Median TTR (range)” value (100mg (N=3))?
Answer: 2.05 (1.35, 2.76) months

Question: And the “BOR CR” value (125mg (N=3))?
Answer: 0 n (%)

Question: And the “BOR NE” value (125mg (N=3))?
Answer: 0 n (%)

Question: What about the “BOR PD” value (125mg (N=3)) of the same molecule?
Answer: 1 (33.3) n (%)

Question: What about the “BOR PR” value (125mg (N=3)) of the same molecule?
Answer: 1 (33.3) n (%)

Question: What about the “BOR SD” value (125mg (N=3)) of the same molecule?
Answer: 1 (33.3) n (%)

Question: What about the “Confirmed ORR (95% CI)” value (125mg (N=3)) of the same molecule?
Answer: 1 (33.3) (0.8, 90.6) n (%)

Question: And the “DCR (95% CI)” value (125mg (N=3))?
Answer: 2 (66.7) (9.4, 99.2) n (%)

Question: And the “Median DOR (95% CI)” value (125mg (N=3))?
Answer: 9.53 (-, -) months

Question: And the “Median TTR (range)” value (125mg (N=3))?
Answer: 1.38 (1.38, 1.38) months
